Structures can show the parent of a compound that is named as a salt.

For the first assay, the target named is bovine milk xanthine oxidase (Bos taurus, UniProt P80457). The assay can be described thus: Capacity to sustain oxidation of xanthine by xanthine oxidase in the absence of oxygen, spectrophotometric. The format is biochemical. Further details: host or cells: bovine milk. The settings on record: 50 μM hydroxyguanidine, 50 μM xanthine, 0.05 units/ml xanthine oxidase, anaerobic, pH 7.5, 20° C., blank subtracted. As for the experimental part: Capacities of a series of hydroxyguanidine to sustain the oxidation of xanthine by xanthine oxidase in the absence of oxygen. The capacities of various hydroxyguanidines to sustain the oxidation of xanthine was assayed by using a spectrophotometric method. In this method bovine milk xanthine oxidase was injected to a Helma® sealable cuvette for anaerobic application thereby creating 1 ml of a reaction mixture that contained reagents as follows: 50 μM of a hydroxyguanidine, 50 μM xanthine, 0.05 units/ml bovine milk xanthine oxidase, 50 mM Tris and 1.5 mM EDTA; the pH of the reaction mixture being 7.5, and the temperature 20° C. Anaerobic conditions were assured by pre-gassing all solutions used for 5-10 min, with nitrogen. The rate of formation of uric acid was monitored spectrophotometrically by measuring the increase in absorbance at 295 nm (the absorption maximum for uric acid) at intervals. The relative capacities of the hydroxyguanidines to sustain oxidation of xanthine were estimated from the derivative of the initial linear phase of the curves. To obtain blank readings an equal volume of the solvent of the hydroxyguanidine (water) was added to the reaction mixture in separate experiments and the initial rate of absorbance change was substracted from the rate readings of the tested hydroxyguanidine.
Chain of bovine milk xanthine oxidase (P80457 whole entry): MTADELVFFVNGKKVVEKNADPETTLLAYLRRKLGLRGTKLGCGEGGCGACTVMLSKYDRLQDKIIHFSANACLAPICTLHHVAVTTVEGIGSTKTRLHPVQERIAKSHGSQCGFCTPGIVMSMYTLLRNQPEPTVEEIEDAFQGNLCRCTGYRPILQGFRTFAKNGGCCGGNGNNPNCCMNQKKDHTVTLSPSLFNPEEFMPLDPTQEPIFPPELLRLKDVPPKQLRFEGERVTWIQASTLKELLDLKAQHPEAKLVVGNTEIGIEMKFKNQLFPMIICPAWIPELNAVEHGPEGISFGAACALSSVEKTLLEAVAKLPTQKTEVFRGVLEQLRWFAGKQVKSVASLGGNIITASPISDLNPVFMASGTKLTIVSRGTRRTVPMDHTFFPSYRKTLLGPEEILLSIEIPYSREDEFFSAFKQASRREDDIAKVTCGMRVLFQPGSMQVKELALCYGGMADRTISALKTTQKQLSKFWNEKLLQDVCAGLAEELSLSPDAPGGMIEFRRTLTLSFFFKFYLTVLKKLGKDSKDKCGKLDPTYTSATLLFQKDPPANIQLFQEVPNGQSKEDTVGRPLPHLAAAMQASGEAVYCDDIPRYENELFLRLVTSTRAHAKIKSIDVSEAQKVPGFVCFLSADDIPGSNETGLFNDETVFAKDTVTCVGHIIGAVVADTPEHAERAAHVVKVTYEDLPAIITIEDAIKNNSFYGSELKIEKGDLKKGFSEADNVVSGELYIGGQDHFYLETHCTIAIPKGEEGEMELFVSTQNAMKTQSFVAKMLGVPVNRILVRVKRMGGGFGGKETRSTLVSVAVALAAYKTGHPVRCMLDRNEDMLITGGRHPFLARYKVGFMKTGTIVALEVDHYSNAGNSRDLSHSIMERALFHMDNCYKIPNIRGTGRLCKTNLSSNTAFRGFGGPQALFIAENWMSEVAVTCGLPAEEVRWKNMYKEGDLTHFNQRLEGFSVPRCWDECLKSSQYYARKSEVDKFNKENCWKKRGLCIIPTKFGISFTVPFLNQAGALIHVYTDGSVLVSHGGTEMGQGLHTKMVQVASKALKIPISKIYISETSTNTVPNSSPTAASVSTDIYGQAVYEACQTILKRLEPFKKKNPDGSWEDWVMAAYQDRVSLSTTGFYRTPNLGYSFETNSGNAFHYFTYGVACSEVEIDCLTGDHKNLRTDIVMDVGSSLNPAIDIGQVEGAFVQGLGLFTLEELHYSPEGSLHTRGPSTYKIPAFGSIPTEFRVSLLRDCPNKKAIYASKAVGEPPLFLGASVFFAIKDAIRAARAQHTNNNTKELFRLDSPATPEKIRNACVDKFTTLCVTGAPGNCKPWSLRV
Exemplary initial rates for the rate of the support of the oxidation of xanthine obtained by assaying the exemplary hydroxyguanidines listed above by the method in the present example are furthermore given in Table 2: […]
Turning to `N=C(NN)NO` [Aminohydroxyguanidine, 1-amino-3-hydroxyguanidine, reference compound], the “V = 1000 × (Δabs 295 nm) min^−1 (initial rate of the support of the oxidation of xanthine)” value is on record as 1.4 1000 × (Δabs 295 nm) min^−1.
For the molecule `COc1ccc(/C=N/NC(=N)NO)cc1OC` [DWO1, reference compound], the “V = 1000 × (Δabs 295 nm) min^−1 (initial rate of the support of the oxidation of xanthine)” value is recorded as 40 1000 × (Δabs 295 nm) min^−1.
Take `COc1ccc(/C=N/NC(=N)NO)c(OC)c1C` [DWO2, reference compound]: the “V = 1000 × (Δabs 295 nm) min^−1 (initial rate of the support of the oxidation of xanthine)” value is recorded as 30.7 1000 × (Δabs 295 nm) min^−1.
Turning to `COc1ccc(/C=N/NC(=N)NO)c(OC)c1` [DWO3, reference compound], the “V = 1000 × (Δabs 295 nm) min^−1 (initial rate of the support of the oxidation of xanthine)” value was 29.4 1000 × (Δabs 295 nm) min^−1.
On to `COc1ccc(/C=N/NC(=N)NO)cc1O` [DWO4, reference compound], for which the “V = 1000 × (Δabs 295 nm) min^−1 (initial rate of the support of the oxidation of xanthine)” value is 36.7 1000 × (Δabs 295 nm) min^−1.
Still for that read-out and setting: with `COc1ccc(/C=N/NC(=N)NO)c(Cl)c1O` [DWO5, reference compound] the figure was 59.7 1000 × (Δabs 295 nm) min^−1.
In the case of `COc1cc(Br)c(/C=N/NC(=N)NO)cc1OC` [DWO6, reference compound], the “V = 1000 × (Δabs 295 nm) min^−1 (initial rate of the support of the oxidation of xanthine)” value was 30.7 1000 × (Δabs 295 nm) min^−1.
As for `COc1ccc(/C=N/NC(=N)NO)cc1F` [DWO7, reference compound], the “V = 1000 × (Δabs 295 nm) min^−1 (initial rate of the support of the oxidation of xanthine)” value is 30.7 1000 × (Δabs 295 nm) min^−1.
`COc1cc(/C=N/NC(=N)NO)c([N+](=O)[O-])cc1OC` [DWO8, reference compound]: the “V = 1000 × (Δabs 295 nm) min^−1 (initial rate of the support of the oxidation of xanthine)” value was 45.4 1000 × (Δabs 295 nm) min^−1.
Turning to `COc1ccc(C=NNC(=N)NO)cc1Br` [EN10, N-(3-Bromo-4-methoxybenzylideneamino)-N′-hydroxyguanidine tosylate], the “V = 1000 × (Δabs 295 nm) min^−1 (initial rate of the support of the oxidation of xanthine)” value is recorded as 22 1000 × (Δabs 295 nm) min^−1.
Regarding `N=C(NO)NN=Cc1ccc(C(F)(F)F)cc1` [EN12, N-(4-Trifluoromethylbenzylideneamino)-N′-hydroxyguanidine tosylate], the “V = 1000 × (Δabs 295 nm) min^−1 (initial rate of the support of the oxidation of xanthine)” value is given as 11 1000 × (Δabs 295 nm) min^−1.
With `N=C(NO)N/N=C\C=C/c1ccccc1` [EN16, N-(3-Phenylpropenyleneamino)-N′-hydroxyguanidine tosylate], the “V = 1000 × (Δabs 295 nm) min^−1 (initial rate of the support of the oxidation of xanthine)” value is on record as 66 1000 × (Δabs 295 nm) min^−1.
With `Cc1cc2oc(/C=N/NC(=N)NO)cc(=O)c2cc1Cl` [EN18, N-(6-Chloro-7-methyl-4oxo-4H-1-benzopyran-3-methyleneamino)-N′-hydroxyguanidine tosylate], the “V = 1000 × (Δabs 295 nm) min^−1 (initial rate of the support of the oxidation of xanthine)” value was 5 1000 × (Δabs 295 nm) min^−1.
Still for that read-out and setting: in the case of `CC(=C/c1ccccc1)/C=N/NC(=N)NO` [EN20] it was 44 1000 × (Δabs 295 nm) min^−1; in that of `N=C(N)NO` [Hydroxyguanidine, N-hydroxyguanidine], 0.7 1000 × (Δabs 295 nm) min^−1; in that of `N=C(NO)N/N=C1\C(=O)Nc2ccc(F)cc21` [LT5, reference compound], 50 1000 × (Δabs 295 nm) min^−1.
Regarding `CCCCCCOc1cccc(/C=N/NC(=N)NO)c1` [LT7, reference compound], the “V = 1000 × (Δabs 295 nm) min^−1 (initial rate of the support of the oxidation of xanthine)” value is 12 1000 × (Δabs 295 nm) min^−1.
In the case of `N=C(NO)N/N=C/C1CCCCC1` [LT10, reference compound], the “V = 1000 × (Δabs 295 nm) min^−1 (initial rate of the support of the oxidation of xanthine)” value is recorded as 3 1000 × (Δabs 295 nm) min^−1.
Take `COc1cccc(/C=N/NC(=N)NO)c1` [LT11, reference compound]: the “V = 1000 × (Δabs 295 nm) min^−1 (initial rate of the support of the oxidation of xanthine)” value is given as 26 1000 × (Δabs 295 nm) min^−1.
Same read-out and setting: in the case of `N=C(NO)N/N=C/c1c2ccccc2c(Cl)c2ccccc12` [LW01, reference compound] it was 0 1000 × (Δabs 295 nm) min^−1.
`N=C(NO)N/N=C/c1ccc2c(c1)OCCO2` [LW04, reference compound]: the “V = 1000 × (Δabs 295 nm) min^−1 (initial rate of the support of the oxidation of xanthine)” value was 55 1000 × (Δabs 295 nm) min^−1.
`N=C(NO)N/N=C/c1ccc(/C=N/NC(=N)NO)cc1` [PR1, 1,4-Bis(N-Hydroxyguanidinoiminomethyl)Benzene Bromide]: the “V = 1000 × (Δabs 295 nm) min^−1 (initial rate of the support of the oxidation of xanthine)” value is 63 1000 × (Δabs 295 nm) min^−1.
The same measure, in the same setting: with `N=C(NO)NN=C(c1ccccc1)c1ccccc1` [PR2, N-(Diphenylmethyleneamino)-N′-Hydroxyguanidine Bromide] the figure was 1 1000 × (Δabs 295 nm) min^−1; with `N=C(NO)NN=C1CCCCC1` [PR4, N-(Cyclohexylideneamino)-N′-Hydroxyguanidine Tosylate], 7 1000 × (Δabs 295 nm) min^−1; with `ONc1ncn[nH]1` [PR6, 3-Hydroxyimino-1,2,4-triazole tosylate], 4 1000 × (Δabs 295 nm) min^−1.
For `N=C(NO)N/N=C/c1cccc(/C=N/NC(=N)NO)c1` [PR8, 1,3-Bis(N-hydroxyguanidinoiminomethyl)benzene tosylate chloride], the “V = 1000 × (Δabs 295 nm) min^−1 (initial rate of the support of the oxidation of xanthine)” value is given as 29 1000 × (Δabs 295 nm) min^−1.
As for `CC(C)CC=NNC(=N)NO` [PR10, N-(3-Methylbutylideneamino)-N′-hydroxyguanidine tosylate], the “V = 1000 × (Δabs 295 nm) min^−1 (initial rate of the support of the oxidation of xanthine)” value is on record as −1 1000 × (Δabs 295 nm) min^−1.
In the case of `COc1ccc(/C(C)=N/NC(=N)NO)cc1OC` [PR11, 3,4-Dimethoxyacetophenone-N-hydroxyguanyl-hydrazone tosylate], the “V = 1000 × (Δabs 295 nm) min^−1 (initial rate of the support of the oxidation of xanthine)” value is 12 1000 × (Δabs 295 nm) min^−1.
Regarding `N=C(NO)NN=Cc1ccco1` [PR12, N-(Furyl-2-methyleneamino)-N′-hydroxyguanidine tosylate], the “V = 1000 × (Δabs 295 nm) min^−1 (initial rate of the support of the oxidation of xanthine)” value is 11 1000 × (Δabs 295 nm) min^−1.
Turning to `N=C(NO)NN=CCc1ccccc1` [PR13, N-(Phenylethylideneamino)-N′-hydroxyguanidine tosylate], the “V = 1000 × (Δabs 295 nm) min^−1 (initial rate of the support of the oxidation of xanthine)” value is on record as 3 1000 × (Δabs 295 nm) min^−1.
As to `N=C(NO)N/N=C/c1cccn1-c1ccc(Cl)cc1` [PR15, N-[1-(4-Chlorophenyl)-pyrrolyl-2-methyleneamino(]-N′-hydroxyguanidine tosylate], the “V = 1000 × (Δabs 295 nm) min^−1 (initial rate of the support of the oxidation of xanthine)” value is recorded as 7 1000 × (Δabs 295 nm) min^−1.
With `N=C(NO)N/N=C/c1nccs1` [PR16, N-(Thiazolyl-2-methyleneamino)-N′-hydroxyguanidine tosylate], the “V = 1000 × (Δabs 295 nm) min^−1 (initial rate of the support of the oxidation of xanthine)” value was 13 1000 × (Δabs 295 nm) min^−1.
Still for that read-out and setting: in the case of `N=C(NO)NN=CCOc1c(Cl)cccc1Cl` [PR17, N-(2,6-Dichlorophenoxyethylideneamino)-N′-hydroxyguanidine bromide] it was −2 1000 × (Δabs 295 nm) min^−1; in that of `Cc1c(/C=N/NC(=N)NO)sc2ccccc12` [PR18, N-(3-Methylbenzo[b]thienyl-2-methyleneamino)-N'-hydroxyguanidine tosylate], 43 1000 × (Δabs 295 nm) min^−1.
Consider `N=C(NO)N/N=C/c1cc[n+](O)cc1` [PR19, N-(N-Oxypyridyl-4-methyleneamino)-N′-hydroxyguanidine tosylate], for which the “V = 1000 × (Δabs 295 nm) min^−1 (initial rate of the support of the oxidation of xanthine)” value is listed as 5 1000 × (Δabs 295 nm) min^−1.
The same measure, in the same setting: in the case of `Cc1nn(C)c(Cl)c1/C=N/NC(=N)NO` [PR20, N-(5-Chloro-1,3-dimethylpyrazolyl-4-methyleneamino)-N′-hydroxyguanidine tosylate] it was 13 1000 × (Δabs 295 nm) min^−1.
Turning to “N-(3- Chloro-5-trifuluoromethylpyridyl-2-methyleneamino)-N′-hydroxyguanidine tosylate [PR14]”, the “V = 1000 × (Δabs 295 nm) min^−1 (initial rate of the support of the oxidation of xanthine)” value is given as 14 1000 × (Δabs 295 nm) min^−1.

Still in this assay, the particulars now being: as disclosed in Example 7.
As to `COc1ccc(/C=N/NC(=N)NO)c(OC)c1` [DWO3, reference compound], the “activity / capacity to undergo reduction (reaction A), in words” value is on record as “moderate capacity”.

The values above are taken from patent US6599943B1, “Use of hydroxyguanidines” (WaPharm AB, priority 1996, dated 2003).
